From PubChem BioAssay AID248 (DTP/NCI, 2004)
Where “and” joins values, the source holds several entries; their conditions need not be identical. Equal entries are not always repeated. Toxic doses and inconclusive results are not listed.

System: L1210 leukemia ip in BDF1 mice, survival T/C
Experiment: NCI In Vivo Anticancer Drug Screen. Data for tumor model L1210 Leukemia (intraperitoneal) in B6D2F1 (BDF1) mice
Conditions: endpoint: mean survival time, higher = longer survival
How it was run: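 Tumor cells were implanted, animals were treated, and survival was followed. The result divides the treated measurement by the vehicle-control measurement.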

NC(CSC(c1ccccc1)(c1ccccc1)c1ccccc1)C(=O)O (configuration not stated) was tested, and the T/C (dose: 1.0 mg/kg/injection, schedule: Q01DX Z (ip), vehicle: carboxymethylcellulose (CMC)) was 97 % of control and 102 % of control, the T/C (dose: 1.0 mg/kg/injection, schedule: Q01DX Z (ip), vehicle: other) was 109 % of control and the T/C (dose: 1.0 mg/kg/injection, schedule: Q01DX Z (ip), vehicle: saline) was 109 % of control. The T/C (dose: 1.95 mg/kg/injection, schedule: Q03HX006 (iv), vehicle: clinical formulation) was 106 % of control, the T/C (dose: 3.9 mg/kg/injection, schedule: Q03HX006 (iv), vehicle: clinical formulation) was 101 % of control and the T/C (dose: 4.0 mg/kg/injection, schedule: Q03HX024 (oral), vehicle: water) was 107 % of control. The T/C (dose: 4.1 mg/kg/injection, schedule: Q03HX024 (ip), vehicle: clinical formulation) was 107 % of control, the T/C (dose: 4.1 mg/kg/injection, schedule: Q03HX024 (ip), vehicle: saline) was 114 % of control and the T/C (dose: 4.1 mg/kg/injection, schedule: Q03HX024 (ip), vehicle: water) was 111 % of control. The T/C (dose: 4.4 mg/kg/injection, schedule: Q03HX024 (ip), vehicle: water) was 106 % of control, the T/C (dose: 5.0 mg/kg/injection, schedule: Q01DX Z (ip), vehicle: carboxymethylcellulose (CMC)) was 108 % of control and 123 % of control and the T/C (dose: 5.0 mg/kg/injection, schedule: Q01DX Z (ip), vehicle: other) was 115 % of control. The T/C (dose: 5.0 mg/kg/injection, schedule: Q01DX Z (ip), vehicle: saline) was 117 % of control, the T/C (dose: 5.4 mg/kg/injection, schedule: Q03HX024 (ip), vehicle: saline) was 111 % of control and the T/C (dose: 6.0 mg/kg/injection, schedule: Q03HX024 (oral), vehicle: water) was 118 % of control. For the same molecule, the T/C (dose: 6.25 mg/kg/injection, schedule: Q01DX015 (oral), vehicle: saline) was 108 % of control, the T/C (dose: 6.25 mg/kg/injection, schedule: Q01DX015 (sc), vehicle: saline) was 105 % of control and the T/C (dose: 6.6 mg/kg/injection, schedule: Q03HX024 (ip), vehicle: water) was 124 % of control. For the same molecule, the T/C (dose: 7.2 mg/kg/injection, schedule: Q03HX024 (ip), vehicle: clinical formulation) was 124 % of control, the T/C (dose: 7.81 mg/kg/injection, schedule: Q03HX006 (iv), vehicle: clinical formulation) was 103 % of control and the T/C (dose: 7.81 mg/kg/injection, schedule: Q03HX012 (ip), vehicle: clinical formulation) was 108 % of control. The T/C (dose: 7.81 mg/kg/injection, schedule: Q03HX012 (ip), vehicle: water) was 121 % of control, the T/C (dose: 8.75 mg/kg/injection, schedule: Q03HX008 (ip), vehicle: other) was 113 % of control and the T/C (dose: 9.0 mg/kg/injection, schedule: Q03HX024 (oral), vehicle: clinical formulation) was 105 % of control. For the same molecule, the T/C (dose: 9.0 mg/kg/injection, schedule: Q03HX024 (oral), vehicle: saline) was 105 % of control, the T/C (dose: 9.0 mg/kg/injection, schedule: Q03HX024 (oral), vehicle: water) was 115 % of control and the T/C (dose: 10.0 mg/kg/injection, schedule: Q01DX Z (ip), vehicle: carboxymethylcellulose (CMC)) was 119 % of control. For the same molecule, the T/C (dose: 12.5 mg/kg/injection, schedule: Q01DX009 (ip), vehicle: clinical formulation) was 116 % of control, the T/C (dose: 12.5 mg/kg/injection, schedule: Q01DX009 (ip), vehicle: other) was 123 % of control and the T/C (dose: 12.5 mg/kg/injection, schedule: Q01DX009 (ip), vehicle: water) was 116 % of control. For the same molecule, the T/C (dose: 12.5 mg/kg/injection, schedule: Q01DX015 (ip), vehicle: saline) was 151 % of control, the T/C (dose: 12.5 mg/kg/injection, schedule: Q01DX015 (oral), vehicle: saline) was 114 % of control and the T/C (dose: 12.75 mg/kg/injection, schedule: Q03HX024 (ip), vehicle: water) was 119 % of control. For the same molecule, the T/C (dose: 14.0 mg/kg/injection, schedule: Q03HX024 (oral), vehicle: clinical formulation) was 122 % of control, the T/C (dose: 15.62 mg/kg/injection, schedule: Q03HX006 (iv), vehicle: clinical formulation) was 103 % of control and the T/C (dose: 15.62 mg/kg/injection, schedule: Q03HX012 (ip), vehicle: water) was 152 % of control. For the same molecule, the T/C (dose: 16.87 mg/kg/injection, schedule: Q03HX024 (ip), vehicle: other) was 151 % of control, the T/C (dose: 17.0 mg/kg/injection, schedule: Q01DX009 (ip), vehicle: other) was 109 % of control and the T/C (dose: 17.5 mg/kg/injection, schedule: Q01DX005 (ip), vehicle: other) was 114 % of control. The T/C (dose: 17.5 mg/kg/injection, schedule: Q01DX009 (ip), vehicle: other) was 113 % of control, the T/C (dose: 17.5 mg/kg/injection, schedule: Q## X006 (ip), vehicle: other) was 116 % of control and the T/C (dose: 22.5 mg/kg/injection, schedule: Q03HX024 (ip), vehicle: water) was 92 % of control. The T/C (dose: 25.0 mg/kg/injection, schedule: Q01DX009 (ip), vehicle: clinical formulation) was 117 % of control, the T/C (dose: 25.0 mg/kg/injection, schedule: Q01DX009 (ip), vehicle: other) was 119 % of control and the T/C (dose: 25.0 mg/kg/injection, schedule: Q01DX009 (ip), vehicle: water) was 110 % of control. For the same molecule, the T/C (dose: 27.0 mg/kg/injection, schedule: Q03HX024 (oral), vehicle: clinical formulation) was 152 % of control and the T/C (dose: 31.25 mg/kg/injection, schedule: Q03HX006 (iv), vehicle: clinical formulation) was 116 % of control.
